Here are results for two compounds from patent publication US7592350B2, “Polycyclic compounds as potent alpha2-adrenoceptor antagonists” (Orion Corporation, priority 2002, dated 2009).

Experiment [1] has as its target T1, alpha2A-adrenoceptor (Homo sapiens, UniProt P08913).
T1 sequence (P08913 1-465): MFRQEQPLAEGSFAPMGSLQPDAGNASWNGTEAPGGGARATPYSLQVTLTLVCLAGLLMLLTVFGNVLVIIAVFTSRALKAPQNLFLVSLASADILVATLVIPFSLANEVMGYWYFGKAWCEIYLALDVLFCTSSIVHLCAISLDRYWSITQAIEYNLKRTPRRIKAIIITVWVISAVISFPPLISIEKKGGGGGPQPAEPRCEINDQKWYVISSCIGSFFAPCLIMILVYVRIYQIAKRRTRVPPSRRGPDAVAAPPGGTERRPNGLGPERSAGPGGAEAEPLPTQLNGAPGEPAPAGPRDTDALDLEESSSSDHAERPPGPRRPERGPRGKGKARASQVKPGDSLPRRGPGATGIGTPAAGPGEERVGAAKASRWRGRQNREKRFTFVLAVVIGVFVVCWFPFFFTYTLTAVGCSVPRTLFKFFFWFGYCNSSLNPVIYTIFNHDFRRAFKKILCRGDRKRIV
Put plainly: Radioligand binding to alpha2-adrenoceptors (alpha2A). Conditions: calculated Ki from radioligand binding assays; read-out: Binding affinity (Ki) alpha2A.

In experiment [2] the target is T2, alpha2B-adrenoceptor (Homo sapiens, UniProt P18089).
T2 sequence (P18089 1-450): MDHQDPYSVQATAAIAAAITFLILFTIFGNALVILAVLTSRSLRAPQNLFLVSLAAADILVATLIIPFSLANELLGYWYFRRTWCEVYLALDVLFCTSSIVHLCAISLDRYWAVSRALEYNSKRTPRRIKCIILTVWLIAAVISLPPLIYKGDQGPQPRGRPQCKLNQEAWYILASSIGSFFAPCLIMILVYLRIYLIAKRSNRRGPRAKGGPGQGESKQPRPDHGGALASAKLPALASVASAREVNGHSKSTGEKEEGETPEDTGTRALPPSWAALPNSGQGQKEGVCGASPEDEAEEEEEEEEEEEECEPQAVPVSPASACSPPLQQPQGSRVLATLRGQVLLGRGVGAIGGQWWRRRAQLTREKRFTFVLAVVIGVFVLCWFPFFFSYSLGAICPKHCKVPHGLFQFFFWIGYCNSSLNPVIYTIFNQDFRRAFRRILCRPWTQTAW
Put plainly: Radioligand binding to alpha2-adrenoceptors (alpha2B). Conditions: calculated Ki from radioligand binding assays; read-out: Binding affinity (Ki) alpha2B. The source says: Examples of the alpha2-adrenoceptor binding affinities of the compounds including in the present invention are shown in the Table 1. Many of these compouinds are high-affinity ligands for all the alpha2-receptors, but some of them display selectivity for the alpha2C-subtype.

Experiment [3] deals with T3, alpha2C-adrenoceptor (Homo sapiens, UniProt P18825).
T3 sequence (P18825 1-462): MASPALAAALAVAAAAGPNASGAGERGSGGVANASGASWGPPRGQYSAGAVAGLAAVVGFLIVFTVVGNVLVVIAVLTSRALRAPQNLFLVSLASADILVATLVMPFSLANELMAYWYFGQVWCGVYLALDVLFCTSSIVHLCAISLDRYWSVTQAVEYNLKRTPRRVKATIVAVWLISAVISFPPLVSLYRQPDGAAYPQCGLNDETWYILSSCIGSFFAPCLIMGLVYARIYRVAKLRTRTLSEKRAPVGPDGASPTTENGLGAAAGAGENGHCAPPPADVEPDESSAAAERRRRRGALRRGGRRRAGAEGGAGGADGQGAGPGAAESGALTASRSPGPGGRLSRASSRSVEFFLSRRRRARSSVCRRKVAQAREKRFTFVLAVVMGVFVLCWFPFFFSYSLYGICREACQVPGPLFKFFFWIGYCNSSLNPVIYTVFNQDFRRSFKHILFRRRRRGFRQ
Put plainly: Radioligand binding to alpha2-adrenoceptors (alpha2C). Conditions: calculated Ki from radioligand binding assays; read-out: Binding affinity (Ki) alpha2C.

A further experiment has as its system mice. In words: Antagonism of alpha2-agonist (dexmedetomidine)-induced sedation. It is filed as in vivo. To be noted: dexmedetomidine 50 nmol/kg s.c., antagonist pre-treatment. The protocol:
(veh=vehicle). (***p<0.001, compared to Dex+vehicle)
One of the prominent effects of non-selective alpha2-agonists in rodents is their ability to cause profound sedation. This effect, measured as locomotor inhibition by the alpha2-agonist dexmedetomidine was not modified in mice with genetically altered alpha2C-expression (Scheinin, M. et al., Life Sci 68(19-20) (2001) 2277-85). […] This assumption was tested in experiment, where dexmedetomidine was administered to mice pre-treated with the alpha2C-antagonists compound K or compound L, or the subtype non-selective antagonist atipamezole (Haapalinna, A. et al., Naunyn-Schmiedeberg's Arch. Pharmacol. 356 (1997) 570-582).

In the next experiment the test system is rats. Put plainly: Forced swimming test. Conditions: 3 micromol/kg, compared to vehicle. In kind it is in vivo. Here is the method:
Forced swimming test (FST, i.e. Porsolt's test) is generally used in the pharmacological screening of new-antidepressants. In this test, antidepressants increase the animals' activity compared to non-treated controls. […] Therefore, it was tested, whether a selective alfa2C-antagonist would have antidepressant-like activity (e.g. activity-increasing property) in the FST. […] Also the positive control substances desipramine and fluoxetine (clinically effective antidepressant agents) were active.

Experiment [4] addresses T1, alpha2A-adrenoceptor. Put plainly: Inhibition of epinephrine-stimulated 35S-GTPγS binding, CHO cell membranes (alpha2A). In kind it is biochemical. On the set-up: expressed in transfected cells; host or cells: CHO cells (membranes). Conditions: mean, read-out: Antagonist potency (KB) alpha2A. Here is the method: (§1) The functional activities of two compounds (K and L) displaying alpha2C-selectivity in binding experiments were determined as the abilities of the compounds to inhibit the epinephrine-stimulated binding of ^35S-GTPγS to G proteins (Jasper, J. R. et al., Biochem. Pharmacol. 55(7) (1998) 103544) in membranes of CHO cells stably transfected with the human alpha2-adrenoceptor subtypes.
On the technique in general: GTPγS resists hydrolysis and so accumulates on activated G proteins.

Experiment [5] concerns the target T2, alpha2B-adrenoceptor. Put plainly: Inhibition of epinephrine-stimulated 35S-GTPγS binding, CHO cell membranes (alpha2B). Set-up: expressed in transfected cells; host or cells: CHO cells (membranes). It is filed as biochemical. Conditions: mean, read-out: Antagonist potency (KB) alpha2B. The protocol: as §1
Experiment [6] addresses T3, alpha2C-adrenoceptor. In words: Inhibition of epinephrine-stimulated 35S-GTPγS binding, CHO cell membranes (alpha2C). In kind it is biochemical. On the set-up: expressed in transfected cells; host or cells: CHO cells (membranes). Conditions: mean, read-out: Antagonist potency (KB) alpha2C. The protocol: as §1

Consider `CC[C@]1(CO)CCCN2CCc3c([nH]c4ccccc34)[C@@H]21` (relative stereo) [Compound L], for which the Ki at alpha2A-adrenoceptor [1] is 85 nM; on alpha2B-adrenoceptor [2] it was 20 nM; on alpha2C-adrenoceptor [3], 18 nM. In addition, the “Antagonism of dexmedetomidine-induced sedation (locomotor inhibition)” value in the experiment on mice is “did not have clear effects”. In addition, the “Activity in the forced swimming test” value in the experiment with rats is listed as “increased activity”. The Kb came to 320 nM on alpha2A-adrenoceptor [4], 75 nM on alpha2B-adrenoceptor [5] and 4.2 nM on alpha2C-adrenoceptor [6].
For `CCC1(O)CCCN2CCc3c([nH]c4ccccc34)C21` (stereo not drawn) [Compound K, 1α-Ethyl-1,2,3,4,6,7,12,12bβ-octahydroindolo[2,3-]quinolizin-1-ol], the Ki was 359 nM on alpha2A-adrenoceptor [1], 245 nM at alpha2B-adrenoceptor [2] and 31 nM on alpha2C-adrenoceptor [3]. In addition, the “Antagonism of dexmedetomidine-induced sedation (locomotor inhibition)” value in the experiment on mice is listed as “did not have clear effects”. The “Activity in the forced swimming test” value with rats is “increased activity”. Moreover, the Kb on alpha2A-adrenoceptor [4] was 295 nM; on alpha2B-adrenoceptor [5] it was 351 nM; at alpha2C-adrenoceptor [6], 23 nM.

For orientation: Ki means the equilibrium dissociation constant of an inhibitor or competing ligand from its target. By Kb is commonly meant the affinity of an antagonist, worked out from how it opposes an agonist.
